Data as given in ChEMBL document CHEMBL4507319 (2021).

Experiments:
[1] = biological target: Serine/threonine-protein kinase SIK3 (Homo sapiens) (UniProt Q9Y2K2); assay: SIK3(h) Eurofins kinase panel; conditions: Compound concentration 1.0 uM
[2] = biological target: 5'-AMP-activated protein kinase catalytic subunit alpha-2 (Homo sapiens, UniProt P54646)
[3] = biological target: Mitogen-activated protein kinase kinase kinase kinase 1 (Homo sapiens) (UniProt Q92918); assay: HPK1(h) Eurofins kinase panel; conditions: Compound concentration 1.0 uM
[4] = biological target: T1, Aurora kinase A (Homo sapiens) (UniProt O14965); assay: (§1) Aurora-A(h) Eurofins kinase panel; conditions: Compound concentration 1.0 uM
T1 sequence (whole entry): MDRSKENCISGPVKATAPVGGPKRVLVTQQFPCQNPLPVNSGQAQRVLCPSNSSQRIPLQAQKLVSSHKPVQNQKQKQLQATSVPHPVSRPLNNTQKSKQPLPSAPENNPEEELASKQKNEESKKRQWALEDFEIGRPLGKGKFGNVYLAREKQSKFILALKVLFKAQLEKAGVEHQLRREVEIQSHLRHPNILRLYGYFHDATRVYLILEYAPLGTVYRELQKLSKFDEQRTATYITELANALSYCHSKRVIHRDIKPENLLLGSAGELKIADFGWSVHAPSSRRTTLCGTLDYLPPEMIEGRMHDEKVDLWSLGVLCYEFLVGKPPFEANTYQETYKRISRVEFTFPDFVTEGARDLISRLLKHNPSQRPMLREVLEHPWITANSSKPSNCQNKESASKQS

Aurora kinase A = Aurora kinase A (Homo sapiens, UniProt O14965); assay: as §1
[5] = biological target: Mast/stem cell growth factor receptor Kit (Homo sapiens) (UniProt P10721); assay: cKit(h) Eurofins kinase panel; conditions: Compound concentration 1.0 uM
[6] = biological target: Protein kinase C zeta type (Homo sapiens) (UniProt Q05513); assay: PKCzeta(h) Eurofins kinase panel; conditions: Compound concentration 1.0 uM
CWR22R = assay: 22Rv1 cell line Proliferation assay; assay type: functional, Homo sapiens; conditions: time 6 day
[7] = biological target: T2, Serine/threonine-protein kinase TAO2 (Homo sapiens) (UniProt Q9UL54); assay: TAO2(h) Eurofins kinase panel; conditions: Compound concentration 1.0 uM
T2 sequence (whole entry): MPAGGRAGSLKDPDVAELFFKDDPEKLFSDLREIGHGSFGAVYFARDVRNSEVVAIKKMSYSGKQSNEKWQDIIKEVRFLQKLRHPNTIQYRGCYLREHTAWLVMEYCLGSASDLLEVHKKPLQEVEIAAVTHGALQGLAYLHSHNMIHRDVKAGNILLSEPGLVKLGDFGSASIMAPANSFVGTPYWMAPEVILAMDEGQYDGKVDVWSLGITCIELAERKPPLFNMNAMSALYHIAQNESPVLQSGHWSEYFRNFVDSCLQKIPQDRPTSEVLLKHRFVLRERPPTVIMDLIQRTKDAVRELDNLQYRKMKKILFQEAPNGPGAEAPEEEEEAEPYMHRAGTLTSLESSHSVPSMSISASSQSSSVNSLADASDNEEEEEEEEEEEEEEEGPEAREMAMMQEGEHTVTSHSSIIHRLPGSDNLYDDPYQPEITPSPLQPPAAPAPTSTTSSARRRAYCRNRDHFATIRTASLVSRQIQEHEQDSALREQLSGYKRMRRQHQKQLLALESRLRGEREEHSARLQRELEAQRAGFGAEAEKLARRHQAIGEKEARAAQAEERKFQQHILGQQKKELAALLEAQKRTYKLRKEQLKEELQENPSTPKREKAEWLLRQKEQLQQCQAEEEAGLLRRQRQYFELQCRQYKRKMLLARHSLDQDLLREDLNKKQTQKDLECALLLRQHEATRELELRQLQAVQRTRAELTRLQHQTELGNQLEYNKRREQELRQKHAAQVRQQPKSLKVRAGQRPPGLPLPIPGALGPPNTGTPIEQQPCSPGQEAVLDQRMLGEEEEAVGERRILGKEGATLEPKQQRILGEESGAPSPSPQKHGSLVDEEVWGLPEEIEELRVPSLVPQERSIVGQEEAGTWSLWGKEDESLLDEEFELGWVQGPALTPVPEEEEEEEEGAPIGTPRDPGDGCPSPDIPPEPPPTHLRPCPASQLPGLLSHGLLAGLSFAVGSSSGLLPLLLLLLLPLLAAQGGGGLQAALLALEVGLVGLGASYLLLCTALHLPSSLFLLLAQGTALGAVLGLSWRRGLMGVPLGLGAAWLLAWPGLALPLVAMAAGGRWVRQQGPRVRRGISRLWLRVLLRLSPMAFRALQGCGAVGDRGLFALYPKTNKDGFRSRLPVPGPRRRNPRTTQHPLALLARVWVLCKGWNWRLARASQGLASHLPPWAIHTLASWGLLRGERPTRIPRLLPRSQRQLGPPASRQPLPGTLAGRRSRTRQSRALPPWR

[8] = biological target: Testis-specific serine/threonine-protein kinase 2 (Homo sapiens) (UniProt Q96PF2); assay: TSSK2(h) Eurofins kinase panel; conditions: Compound concentration 1.0 uM
[9] = biological target: T3, Ephrin type-B receptor 3 (Homo sapiens) (UniProt P54753); assay: EphB3(h) Eurofins kinase panel; conditions: Compound concentration 1.0 uM
T3 sequence (whole entry): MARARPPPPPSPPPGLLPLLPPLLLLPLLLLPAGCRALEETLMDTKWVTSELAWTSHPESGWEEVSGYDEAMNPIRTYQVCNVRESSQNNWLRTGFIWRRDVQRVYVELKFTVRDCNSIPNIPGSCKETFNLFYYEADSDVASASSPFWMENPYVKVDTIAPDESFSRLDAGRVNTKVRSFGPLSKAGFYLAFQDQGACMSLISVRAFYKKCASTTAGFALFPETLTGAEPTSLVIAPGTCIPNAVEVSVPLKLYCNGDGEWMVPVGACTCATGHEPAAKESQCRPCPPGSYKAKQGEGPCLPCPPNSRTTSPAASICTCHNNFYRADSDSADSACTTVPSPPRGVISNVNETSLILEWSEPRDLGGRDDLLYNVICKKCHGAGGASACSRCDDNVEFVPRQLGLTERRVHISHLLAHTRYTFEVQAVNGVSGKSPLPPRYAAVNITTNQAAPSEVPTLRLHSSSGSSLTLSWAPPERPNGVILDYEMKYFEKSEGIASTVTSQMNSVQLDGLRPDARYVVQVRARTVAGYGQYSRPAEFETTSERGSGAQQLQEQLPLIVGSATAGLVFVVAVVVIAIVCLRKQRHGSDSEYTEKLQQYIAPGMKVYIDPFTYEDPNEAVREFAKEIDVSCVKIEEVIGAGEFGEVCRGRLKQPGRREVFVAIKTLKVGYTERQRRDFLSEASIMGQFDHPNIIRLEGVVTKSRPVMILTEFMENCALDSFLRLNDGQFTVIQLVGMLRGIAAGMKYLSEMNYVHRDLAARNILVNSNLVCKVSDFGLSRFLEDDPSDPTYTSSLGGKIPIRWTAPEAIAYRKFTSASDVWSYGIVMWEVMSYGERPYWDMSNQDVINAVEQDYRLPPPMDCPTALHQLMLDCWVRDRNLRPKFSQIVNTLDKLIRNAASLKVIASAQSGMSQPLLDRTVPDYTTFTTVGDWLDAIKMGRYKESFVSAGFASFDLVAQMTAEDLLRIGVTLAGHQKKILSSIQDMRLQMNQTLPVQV

[10] = GPCRScan assay: inhibition of GABA/PBR; set-up: species or system Rattus norvegicus; radioligand conc. used [nm] 0.3 – 2.0, parental cells brain tissue

5'-AMP-activated protein kinase catalytic subunit alpha-2, sequence (P54646 whole entry): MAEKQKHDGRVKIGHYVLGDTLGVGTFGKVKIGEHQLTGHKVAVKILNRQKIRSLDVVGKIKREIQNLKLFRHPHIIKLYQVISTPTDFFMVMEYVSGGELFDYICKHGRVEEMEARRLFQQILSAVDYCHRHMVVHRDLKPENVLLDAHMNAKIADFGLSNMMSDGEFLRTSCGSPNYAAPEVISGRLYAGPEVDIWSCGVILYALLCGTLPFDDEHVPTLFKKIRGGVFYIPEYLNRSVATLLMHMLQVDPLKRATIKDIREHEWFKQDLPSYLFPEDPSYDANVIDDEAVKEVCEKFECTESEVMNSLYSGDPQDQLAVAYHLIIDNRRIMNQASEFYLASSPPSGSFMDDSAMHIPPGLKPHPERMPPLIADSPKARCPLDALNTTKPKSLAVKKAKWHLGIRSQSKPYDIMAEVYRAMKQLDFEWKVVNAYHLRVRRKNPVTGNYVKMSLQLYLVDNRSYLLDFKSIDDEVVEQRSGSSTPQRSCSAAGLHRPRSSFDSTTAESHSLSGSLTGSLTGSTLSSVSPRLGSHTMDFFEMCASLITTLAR
Mast/stem cell growth factor receptor Kit (Homo sapiens), sequence (P10721 whole entry): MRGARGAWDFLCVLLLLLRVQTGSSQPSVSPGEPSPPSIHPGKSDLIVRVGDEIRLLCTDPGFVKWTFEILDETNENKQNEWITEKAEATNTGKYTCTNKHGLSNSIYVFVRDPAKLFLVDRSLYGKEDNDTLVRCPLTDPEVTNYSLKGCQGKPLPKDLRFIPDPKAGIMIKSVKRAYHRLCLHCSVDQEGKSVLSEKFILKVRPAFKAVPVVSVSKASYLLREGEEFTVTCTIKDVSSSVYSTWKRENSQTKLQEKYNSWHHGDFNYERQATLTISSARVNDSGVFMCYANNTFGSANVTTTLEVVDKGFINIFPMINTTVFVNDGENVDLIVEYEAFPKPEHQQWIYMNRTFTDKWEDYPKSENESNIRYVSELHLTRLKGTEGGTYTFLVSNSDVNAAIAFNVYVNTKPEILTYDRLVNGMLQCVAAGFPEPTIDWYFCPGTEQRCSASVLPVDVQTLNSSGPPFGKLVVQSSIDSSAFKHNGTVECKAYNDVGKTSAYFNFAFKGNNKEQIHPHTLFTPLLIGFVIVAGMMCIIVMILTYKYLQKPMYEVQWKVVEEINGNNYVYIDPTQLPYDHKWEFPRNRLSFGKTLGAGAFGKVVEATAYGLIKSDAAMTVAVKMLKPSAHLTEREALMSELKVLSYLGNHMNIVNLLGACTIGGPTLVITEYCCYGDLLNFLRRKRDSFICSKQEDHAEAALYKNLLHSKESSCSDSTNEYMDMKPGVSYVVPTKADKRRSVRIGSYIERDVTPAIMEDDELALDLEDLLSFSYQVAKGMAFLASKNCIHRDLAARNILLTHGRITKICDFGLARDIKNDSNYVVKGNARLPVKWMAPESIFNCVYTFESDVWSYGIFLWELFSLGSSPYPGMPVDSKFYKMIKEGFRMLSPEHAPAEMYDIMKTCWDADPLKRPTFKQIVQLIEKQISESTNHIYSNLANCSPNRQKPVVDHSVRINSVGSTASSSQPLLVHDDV
Serine/threonine-protein kinase SIK3 (Homo sapiens), sequence (Q9Y2K2 whole entry, looked up): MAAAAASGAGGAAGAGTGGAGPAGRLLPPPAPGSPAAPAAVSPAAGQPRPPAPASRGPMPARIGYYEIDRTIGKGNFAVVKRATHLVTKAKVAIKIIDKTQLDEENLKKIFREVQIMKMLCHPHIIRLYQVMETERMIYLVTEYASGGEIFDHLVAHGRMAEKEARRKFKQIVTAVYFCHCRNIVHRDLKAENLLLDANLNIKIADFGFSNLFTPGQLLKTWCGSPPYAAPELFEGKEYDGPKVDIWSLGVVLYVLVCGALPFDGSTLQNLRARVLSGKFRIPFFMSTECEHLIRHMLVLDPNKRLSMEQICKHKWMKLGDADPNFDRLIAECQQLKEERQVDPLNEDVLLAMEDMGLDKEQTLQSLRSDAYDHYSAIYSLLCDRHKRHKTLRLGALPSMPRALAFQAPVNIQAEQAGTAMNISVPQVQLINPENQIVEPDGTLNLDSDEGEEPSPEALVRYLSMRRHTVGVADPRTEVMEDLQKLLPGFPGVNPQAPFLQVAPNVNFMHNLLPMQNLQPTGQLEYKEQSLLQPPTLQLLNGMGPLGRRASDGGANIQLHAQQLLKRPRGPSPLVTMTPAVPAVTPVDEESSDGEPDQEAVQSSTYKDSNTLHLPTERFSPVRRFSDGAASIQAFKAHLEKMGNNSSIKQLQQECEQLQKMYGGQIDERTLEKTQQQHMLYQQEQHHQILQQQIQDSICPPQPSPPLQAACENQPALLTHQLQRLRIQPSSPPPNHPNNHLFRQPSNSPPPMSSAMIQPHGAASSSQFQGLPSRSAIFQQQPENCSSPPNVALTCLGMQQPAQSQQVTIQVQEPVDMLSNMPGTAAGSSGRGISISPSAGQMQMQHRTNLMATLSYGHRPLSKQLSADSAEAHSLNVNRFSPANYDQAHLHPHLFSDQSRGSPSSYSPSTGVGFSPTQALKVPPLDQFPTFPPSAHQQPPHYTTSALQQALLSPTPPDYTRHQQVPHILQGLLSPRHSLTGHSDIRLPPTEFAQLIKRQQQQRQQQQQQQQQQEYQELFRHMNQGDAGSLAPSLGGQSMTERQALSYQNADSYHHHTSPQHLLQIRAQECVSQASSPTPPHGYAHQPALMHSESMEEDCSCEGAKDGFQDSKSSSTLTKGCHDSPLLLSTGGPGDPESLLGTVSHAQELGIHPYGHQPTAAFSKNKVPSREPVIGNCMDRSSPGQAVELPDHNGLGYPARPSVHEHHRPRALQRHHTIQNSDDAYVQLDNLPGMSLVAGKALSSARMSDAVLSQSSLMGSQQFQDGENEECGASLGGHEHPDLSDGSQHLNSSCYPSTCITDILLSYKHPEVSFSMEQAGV
Testis-specific serine/threonine-protein kinase 2 (Homo sapiens), sequence (Q96PF2 whole entry): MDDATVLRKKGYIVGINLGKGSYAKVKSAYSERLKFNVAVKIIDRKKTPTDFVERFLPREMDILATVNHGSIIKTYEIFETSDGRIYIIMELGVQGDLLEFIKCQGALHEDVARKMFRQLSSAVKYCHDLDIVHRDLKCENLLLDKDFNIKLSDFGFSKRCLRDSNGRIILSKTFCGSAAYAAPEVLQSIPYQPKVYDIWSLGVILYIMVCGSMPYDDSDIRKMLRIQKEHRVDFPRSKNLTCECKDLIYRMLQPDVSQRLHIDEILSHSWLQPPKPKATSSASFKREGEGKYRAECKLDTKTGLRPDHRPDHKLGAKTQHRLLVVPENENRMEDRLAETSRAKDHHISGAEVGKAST
Mitogen-activated protein kinase kinase kinase kinase 1 (Homo sapiens), sequence (Q92918 whole entry, looked up): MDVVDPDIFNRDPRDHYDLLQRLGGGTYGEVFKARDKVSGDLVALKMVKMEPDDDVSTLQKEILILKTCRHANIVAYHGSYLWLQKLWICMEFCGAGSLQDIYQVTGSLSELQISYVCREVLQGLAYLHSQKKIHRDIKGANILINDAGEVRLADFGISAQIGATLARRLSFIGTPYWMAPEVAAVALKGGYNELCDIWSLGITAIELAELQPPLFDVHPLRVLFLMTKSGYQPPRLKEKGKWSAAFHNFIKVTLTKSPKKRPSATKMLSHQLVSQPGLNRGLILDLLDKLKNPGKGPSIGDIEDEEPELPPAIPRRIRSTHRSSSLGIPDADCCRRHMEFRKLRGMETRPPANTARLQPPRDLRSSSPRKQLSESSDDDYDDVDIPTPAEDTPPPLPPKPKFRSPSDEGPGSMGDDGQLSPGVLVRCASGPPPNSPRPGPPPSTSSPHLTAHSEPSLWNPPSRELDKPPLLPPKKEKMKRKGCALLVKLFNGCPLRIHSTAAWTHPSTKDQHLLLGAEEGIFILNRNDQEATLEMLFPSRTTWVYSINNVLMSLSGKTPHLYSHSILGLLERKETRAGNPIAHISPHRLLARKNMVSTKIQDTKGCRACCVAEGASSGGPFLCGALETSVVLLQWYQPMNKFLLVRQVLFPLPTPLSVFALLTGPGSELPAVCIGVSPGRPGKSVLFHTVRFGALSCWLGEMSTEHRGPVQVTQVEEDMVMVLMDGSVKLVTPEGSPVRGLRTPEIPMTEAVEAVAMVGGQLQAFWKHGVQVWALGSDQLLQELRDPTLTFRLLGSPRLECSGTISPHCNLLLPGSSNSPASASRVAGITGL
Protein kinase C zeta type (Homo sapiens), sequence (Q05513 whole entry): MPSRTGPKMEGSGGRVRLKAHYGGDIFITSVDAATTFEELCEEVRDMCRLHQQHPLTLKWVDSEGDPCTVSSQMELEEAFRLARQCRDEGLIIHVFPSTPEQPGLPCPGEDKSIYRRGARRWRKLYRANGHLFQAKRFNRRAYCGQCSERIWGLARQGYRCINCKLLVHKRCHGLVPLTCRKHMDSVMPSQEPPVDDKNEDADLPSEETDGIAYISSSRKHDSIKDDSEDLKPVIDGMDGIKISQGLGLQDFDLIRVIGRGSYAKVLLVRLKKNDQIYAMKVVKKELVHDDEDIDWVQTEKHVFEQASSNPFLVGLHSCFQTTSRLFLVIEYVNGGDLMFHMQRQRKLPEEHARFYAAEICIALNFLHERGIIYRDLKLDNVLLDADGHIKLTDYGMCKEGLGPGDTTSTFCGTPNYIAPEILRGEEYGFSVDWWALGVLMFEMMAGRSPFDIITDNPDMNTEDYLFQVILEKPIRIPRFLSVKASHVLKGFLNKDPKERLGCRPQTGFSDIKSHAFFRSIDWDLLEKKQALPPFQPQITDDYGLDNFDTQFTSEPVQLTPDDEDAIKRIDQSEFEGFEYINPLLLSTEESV

| Compound | % residual kinase activity [1] | IC50 [2] | % residual kinase activity [3] | % residual kinase activity [4] | IC50 (Aurora kinase A) | % residual kinase activity [5] | % residual kinase activity [6] | Cell Proliferation IC50 (CWR22R) | % residual kinase activity [7] | % residual kinase activity [8] | % residual kinase activity [9] | Ki [10] | pKi [10] |
| --- | --- | --- | --- | --- | --- | --- | --- | --- | --- | --- | --- | --- | --- |
| CCc1ccccc1C(=O)Nc1n[nH]c2c(C)c(F)c(C3C(C#N)=C(C)N(C)C(C)=C3C#N)cc12 [BAY-3827] | 84% | 7 nM | 57% | 34% | 480 nM | 101% | 99% | 5550 nM | 104% | 105% | 109% | – | – |
| CC1=C(C#N)C(c2ccc3c(c2)c(NC(=O)c2ccccc2C)nn3C)C(C#N)=C(C)N1 [BAY-974] | – | – | – | – | – | – | – | – | – | – | – | 21 nM | 7.69 |
